Measured values reported in patent publication US20240247080A1, “GLP1/GIP/NPY2 RECEPTOR TRIPLE AGONISTS” (Boehringer Ingelheim International GmbH, priority 2022, published 2024).
Where two headings read alike, the source gives them in different places. Starred links: 1 amine or outer side, 2 acyl side, 3 side chain; linkers in the order of their positions; H or OH if unused. Non-standard residues stand in square brackets, D forms with d. Groups on a side chain read outwards from the residue. *: point of attachment. C20 diacid = O=C(O)CCCCCCCCCCCCCCCCCCC(=O)*; C18 diacid = O=C(O)CCCCCCCCCCCCCCCCC(=O)*; γGlu = O=C(O)[C@H](CCC(=O)[*:2])N[*:1]; εLys = N[C@@H](CCCCN[*:1])C(=O)[*:2]; NMeR = CN[C@@H](CCCNC(=N)N)C(=O)O; β3hQ = NC(=O)CC[C@H](N)CC(=O)O; AEEA = NCCOCCOCC(=O)O; Aib = CC(C)(N)C(=O)O; Ahx = NCCCCCC(=O)O

Tests used:
Assay type in all cases: cell-based
Conditions in all cases: CreLuc reporter gene assay
[1] = target: T1, hGIPR (Homo sapiens, UniProt P48546); assay: hGIPR CreLuc reporter gene assay in 0.5% and 100% plasma
T1 construct: expressed in transfected cells; host or cells: CHO cells carrying a CRE-luciferase reporter gene
T1 sequence (P48546 22-466): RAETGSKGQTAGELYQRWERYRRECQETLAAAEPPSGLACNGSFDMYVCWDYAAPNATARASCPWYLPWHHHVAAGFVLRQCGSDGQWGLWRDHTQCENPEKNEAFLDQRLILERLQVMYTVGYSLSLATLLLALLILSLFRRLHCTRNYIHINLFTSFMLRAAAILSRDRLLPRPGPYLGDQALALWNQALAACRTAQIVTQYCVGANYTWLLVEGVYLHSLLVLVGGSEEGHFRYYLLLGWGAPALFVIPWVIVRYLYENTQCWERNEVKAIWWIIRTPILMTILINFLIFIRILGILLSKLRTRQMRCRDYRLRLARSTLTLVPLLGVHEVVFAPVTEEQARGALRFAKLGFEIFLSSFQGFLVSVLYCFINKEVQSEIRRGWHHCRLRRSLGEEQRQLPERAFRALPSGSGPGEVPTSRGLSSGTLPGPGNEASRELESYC
In short: (§1)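 HEK cells (GLP-1R, NPY2R) or CHO cells (GIPR) carrying a CRE-luciferase reporter, incubated 4 h at 37 °C with peptides in HBSS/20 mM HEPES pH 7.4 plus 0.5% human plasma, or in 100% plasma. Luminescence read; EC50 from 8-point variable-slope sigmoid fits.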

[2] = target: T2, hNPY2R (Homo sapiens, UniProt P49146); assay: hNPY2R CreLuc reporter gene assay in 0.5% and 100% plasma
T2 construct: expressed in transfected cells; host or cells: HEK-293 cells carrying a CRE-luciferase reporter gene
T2 sequence (P49146 1-381): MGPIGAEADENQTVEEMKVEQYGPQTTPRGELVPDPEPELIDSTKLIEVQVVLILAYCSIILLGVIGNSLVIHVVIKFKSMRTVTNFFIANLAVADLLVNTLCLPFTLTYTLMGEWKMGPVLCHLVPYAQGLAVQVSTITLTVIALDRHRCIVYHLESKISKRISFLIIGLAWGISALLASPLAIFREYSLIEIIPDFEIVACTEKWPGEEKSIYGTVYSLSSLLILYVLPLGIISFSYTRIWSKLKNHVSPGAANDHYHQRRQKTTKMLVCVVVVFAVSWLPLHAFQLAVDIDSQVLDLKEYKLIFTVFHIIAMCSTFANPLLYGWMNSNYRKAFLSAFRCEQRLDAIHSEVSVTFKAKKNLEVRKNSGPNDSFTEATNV
Description: Example 1: hGLPR/hGIPR/hNPY2R CreLuc Assay in 0.5% and 100% Plasma
CHO and HEK-293 recombinant cell lines express a luciferase reporter gene under control of the cAMP responsive element (CRE). As a second recombinant protein the GLP-1 and NPY2 receptors were expressed in the reporter gene HEK cells, and the GIP receptor was expressed in the reporter gene CHO cells, respectively. Stimulation of these recombinant cells with an agonist leads to an increase of intracellular cAMP levels. In the presence of cAMP, the transcription factor CRE binding protein (CREB) binds to the CRE and to the CREB binding protein (CBP), which leads to transcription of the luciferase reporter gene. Peptides upon serial-dilution in 100% DMSO were transferred into 384-well assay plates with 5 μl pre-dispensed assay buffer (1×HBSS, 20 mM HEPES, pH7.4 supplemented with 0.5% human plasma) using acoustic dispensing on a Labcyte ECHO. Cryo-preserved transgenic reporter gene cells were thawed in assay buffer. 20 μl (10.000 cells/well) were added to the plate with the peptides and incubated for 4 hours at 37° C. in a humidified incubator. Following incubation, assay plates are equilibrated to room temperature, followed by addition of 25 μl of Bright-GIo™ Luciferase reagent, incubation at room temperature for 10 minutes and analysis of luminescence (Envision Reader). Concentration response evaluation of compounds was performed with 8 concentrations of peptides (covering four decades). EC50 values were calculated by non-linear regression using sigmoid concentration-response with variable slope. The same assays were run in the presence of 100% plasma with no additional buffer constituents.

[3] = target: T3, hGLP1R (Homo sapiens, UniProt P43220); assay: hGLP1R CreLuc reporter gene assay in 0.5% and 100% plasma
T3 construct: expressed in transfected cells; host or cells: HEK-293 cells carrying a CRE-luciferase reporter gene
In short: as §1

[4] = 0.5% human plasma, read-out: hGIPR 0.5% hP
[5] = 0.5% human plasma, read-out: hNPY2R 0.5% hP
[6] = 0.5% human plasma, read-out: hGLP1R 0.5% hP
[7] = 100% human plasma, read-out: hGIPR 100% hP
[8] = 100% human plasma, read-out: hNPY2R 100% hP
[9] = 100% human plasma, read-out: hGLP1R 100% hP

T3 sequence (P43220 24-463): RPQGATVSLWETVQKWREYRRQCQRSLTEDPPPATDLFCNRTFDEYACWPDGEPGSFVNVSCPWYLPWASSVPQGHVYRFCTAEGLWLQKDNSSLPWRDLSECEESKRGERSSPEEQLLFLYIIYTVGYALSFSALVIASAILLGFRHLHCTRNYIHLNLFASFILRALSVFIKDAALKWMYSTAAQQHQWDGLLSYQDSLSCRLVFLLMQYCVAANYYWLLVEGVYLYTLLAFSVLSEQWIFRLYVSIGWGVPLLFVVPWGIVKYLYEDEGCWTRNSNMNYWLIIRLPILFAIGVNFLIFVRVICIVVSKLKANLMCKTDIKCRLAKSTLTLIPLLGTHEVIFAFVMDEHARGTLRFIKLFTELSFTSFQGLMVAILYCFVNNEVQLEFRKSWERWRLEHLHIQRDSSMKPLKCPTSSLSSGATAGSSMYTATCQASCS

Substance | EC50 [1, 4] [nM] | EC50 [2, 5] [nM] | EC50 [3, 6] [nM] | EC50 [1, 7] [nM] | EC50 [2, 8] [nM] | EC50 [3, 9] [nM]
H-Y[Aib]EGTFTSDYSI[Aib]LEKQAQ[Aib]AFVEWLIK([γGlu-γGlu-γGlu-γGlu-γGlu-γGlu-C20 diacid])GGGSEYVSLRHYYNWLTRQRY-NH2 [Compound 65, Y-Aib-E-G-T-F-T-S-D-Y-S-I-Aib-L-E-K-Q-A-Q-Aib-A-F-V-E-W-L-I-K(1,3)-GGGSEYVSLRHYYNWLTRQRY-NH2.C20DA-gGlu-gGlu-gGlu-gGlu-gGlu-gGlu(1,2)] | 1.03 | 11 | 2.65 |  |  | 
H-Y[Aib]EGTFTSDYSI[Aib]LEKQAQ[Aib]AFVEWLIK([AEEA-AEEA-γGlu-γGlu-γGlu-C18 diacid])GGPESGASLRHYYNWLTRQRY-NH2 [Compound 166, Y-Aib-E-G-T-F-T-S-D-Y-S-I-Aib-L-E-K-Q-A-Q-Aib-A-F-V-E-W-L-I-K(1,3)-GGPESGASLRHYYNWLTRQRY-NH2.C18DA-gGlu-gGlu-gGlu-OEG-OEG(1,2)] | 0.08 | 12.5 | 0.07 | 0.64 |  | 4.24
H-Y[Aib]EGTFTSDYSI[Aib]LEKQAQ[Aib]AFVEWLIK([εLys-γGlu-γGlu-γGlu-γGlu-γGlu-γGlu-C20 diacid])GGPSSGASLLHYYNWLTRQRY-NH2 [Compound 210, Y-Aib-E-G-T-F-T-S-D-Y-S-I-Aib-L-E-K-Q-A-Q-Aib-A-F-V-E-W-L-I-K(1,3)-GGPSSGASLLHYYNWLTRQRY-NH2.C20DA-gGlu-gGlu-gGlu-gGlu-gGlu-gGlu-eLys(1,2)] | 0.28 | 54.1 | 0.19 |  |  | 
H-Y[Aib]EGTFTSDYSI[Aib]LEKQAQ[Aib]AFVEWLIK([Ahx-γGlu-γGlu-γGlu-γGlu-γGlu-C18 diacid])GGPSSGASLRHYYNWLTRQRY-NH2 [Compound 260, Y-Aib-E-G-T-F-T-S-D-Y-S-I-Aib-L-E-K-Q-A-Q-Aib-A-F-V-E-W-L-I-K(1,3)-GGPSSGASLRHYYNWLTRQRY-NH2.C18DA-gGlu-gGlu-gGlu-gGlu-gGlu-AHX(1,2)] | 0.31 | 26.4 | 0.13 |  |  | 
H-Y[Aib]EGTFTSDYSI[Aib]LEKQAQ[Aib]AFVEWLIK([εLys-γGlu-γGlu-γGlu-γGlu-γGlu-γGlu-C20 diacid])GGPSEGASLRHYYNWLTR[β3hQ]RY-NH2 [Compound 277, Y-Aib-E-G-T-F-T-S-D-Y-S-I-Aib-L-E-K-Q-A-Q-Aib-A-F-V-E-W-L-I-K(1,3)-G-G-P-S-E-G-A-S-L-R-H-Y-Y-N-W-L-T-R-bHGln-R-Y-NH2.C20DA-gGlu-gGlu-gGlu-gGlu-gGlu-gGlu-eLys(1,2)] | 0.11 | > 99.9 | 0.19 | 0.68 |  | 
H-Y[Aib]EGTFTSDYSI[Aib]LEKQAQ[Aib]EFVEWLIK([εLys-γGlu-γGlu-γGlu-γGlu-γGlu-γGlu-C20 diacid])GGPSEGASLRHYYNWLTRQRY-NH2 [Compound 275, Y-Aib-E-G-T-F-T-S-D-Y-S-I-Aib-L-E-K-Q-A-Q-Aib-E-F-V-E-W-L-I-K(1,3)-GGPSEGASLRHYYNWLTRQRY-NH2.C20DA-gGlu-gGlu-gGlu-gGlu-gGlu-gGlu-eLys(1,2)] | 0.27 | 19.9 | 0.5 | 1.75 |  | 
H-Y[Aib]EGTFTSDYSI[Aib]LEKQAQ[Aib]AFVQWLIK([εLys-γGlu-γGlu-γGlu-γGlu-γGlu-C20 diacid])GGPSEYASLRHYYNWLTRQRY-NH2 [Compound 189, Y-Aib-E-G-T-F-T-S-D-Y-S-I-Aib-L-E-K-Q-A-Q-Aib-A-F-V-Q-W-L-I-K(1,3)-GGPSEYASLRHYYNWLTRQRY-NH2.C20DA-gGlu-gGlu-gGlu-gGlu-gGlu-eLys(1,2)] | 0.31 | 8.03 | 0.21 |  | 45.8 | 10.2
H-Y[Aib]EGTFTSDYSI[Aib]LEKQAQ[Aib]AFVQWLIK([εLys-γGlu-γGlu-γGlu-γGlu-γGlu-γGlu-C20 diacid])GGPSEGASLRHYYNWLTRQ[NMeR]Y-NH2 [Compound 125, Y-Aib-E-G-T-F-T-S-D-Y-S-I-Aib-L-E-K-Q-A-Q-Aib-A-F-V-Q-W-L-I-K(1,3)-G-G-P-S-E-G-A-S-L-R-H-Y-Y-N-W-L-T-R-Q-NMeR-Y-NH2.C20DA-gGlu-gGlu-gGlu-gGlu-gGlu-gGlu-eLys(1,2)] | 0.28 | 30.9 | 0.23 | 1.72 | 99.3 | 
H-Y[Aib]EGTFTSDYSI[Aib]LEKQAQ[Aib]AFVQWLIK([AEEA-AEEA-γGlu-γGlu-γGlu-C18 diacid])GGPEEGASLRHYYNWLTRQRY-NH2 [Compound 144, Y-Aib-E-G-T-F-T-S-D-Y-S-I-Aib-L-E-K-Q-A-Q-Aib-A-F-V-Q-W-L-I-K(1,3)-GGPEEGASLRHYYNWLTRQRY-NH2.C18DA-gGlu-gGlu-gGlu-OEG-OEG(1,2)] | 1.15 | 15.8 | 0.16 | 0.79 | 48.7 | 

Continued, values first:

EC50 [1, 4] [nM] | EC50 [2, 5] [nM] | EC50 [3, 6] [nM] | EC50 [1, 7] [nM] | EC50 [2, 8] [nM] | EC50 [3, 9] [nM] | Substance
0.13 | 13.2 | 0.09 | 1.38 | 50.6 |  | H-Y[Aib]EGTFTSDYSI[Aib]LEKQAQ[Aib]AFVQWLIK([γGlu-γGlu-γGlu-γGlu-γGlu-C18 diacid])GGPESGASLRHYYNWLTRQRY-NH2 [Compound 53, Y-Aib-E-G-T-F-T-S-D-Y-S-I-Aib-L-E-K-Q-A-Q-Aib-A-F-V-Q-W-L-I-K(1,3)-GGPESGASLRHYYNWLTRQRY-NH2.C18DA-gGlu-gGlu-gGlu-gGlu-gGlu(1,2)]
0.53 |  |  | 1.58 | 45.4 | 7.18 | H-Y[Aib]EGTFTSDYSI[Aib]LEKQAQ[Aib]EFVEWLIK([εLys-γGlu-γGlu-γGlu-γGlu-γGlu-γGlu-γGlu-C20 diacid])GGPSSGASLRHYYNWLTRQRY-NH2 [Compound 88, Y-Aib-E-G-T-F-T-S-D-Y-S-I-Aib-L-E-K-Q-A-Q-Aib-E-F-V-E-W-L-I-K(1,3)-GGPSSGASLRHYYNWLTRQRY-NH2.C20DA-gGlu-gGlu-gGlu-gGlu-gGlu-gGlu-gGlu-eLys(1,2)]
0.65 | 18.3 | 0.29 | 2.81 |  |  | H-Y[Aib]EGTFTSDYSI[Aib]LEKQAQ[Aib]AFVEWLIK([γGlu-γGlu-γGlu-γGlu-γGlu-γGlu-C20 diacid])GGPSEGASLRHYYNWLTRQRY-NH2 [Compound 305, Y-Aib-E-G-T-F-T-S-D-Y-S-I-Aib-L-E-K-Q-A-Q-Aib-A-F-V-E-W-L-I-K(1,3)-GGPSEGASLRHYYNWLTRQRY-NH2.C20DA-gGlu-gGlu-gGlu-gGlu-gGlu-gGlu(1,2)]
0.2 | 10.2 | 0.21 | 1.21 | 36 |  | H-Y[Aib]EGTFTSDYSI[Aib]LEKEAQ[Aib]KFVEWLIK([εLys-γGlu-γGlu-γGlu-γGlu-γGlu-γGlu-C20 diacid])GGPSSGASLRHYYNWLTRQRY-NH2 [Compound 46, Y-Aib-E-G-T-F-T-S-D-Y-S-I-Aib-L-E-K-E-A-Q-Aib-K-F-V-E-W-L-I-K(1,3)-GGPSSGASLRHYYNWLTRQRY-NH2.C20DA-gGlu-gGlu-gGlu-gGlu-gGlu-gGlu-eLys(1,2)]
